Tests used:
[1] = UV absorption, specific extinction in DMSO by spectrophotometer; type: physicochemical; settings: 1% by weight, 1 cm cuvette
Experimental: A scytonemin sample obtained according to Example 1 was dissolved in DMSO (dimethylsulfoxide) to a concentration of 1% by weight and subsequently, with a spectrophotometer used according to the standard procedures (manufacturer: Varian, model: CARY 100 Scan) absorbance was measured for two wavelengths (305 and 393 nm) in a cuvette with 1 cm thickness.

[2] = cited from earlier work
[3] = Storage stability in room conditions, absorbance spectra before and after; type: physicochemical; settings: 25° C., 10 months
Experimental: The compound prepared in Example 1 was stored in room conditions (temp. 25° C.) for 10 months. Absorbance spectra before and after the storage test are identical, which confirms stability of the compound. […] The crystalline form of scytonemin of the invention is stable.

[4] = Degree of scytonemin dispersion in selected solutions used in cosmetics; type: physicochemical; settings: for dispersion level: shaker 1 min, ultrasonic bath 10 min
Experimental: 0.5 mg scytonemin was weighed out on an analytical balance and suspended in 1 g of the solution: • 1) Propylene glycol (INCI: Propylene Glycol) • 2) Refined apricot oil (INCI: Prunus Armeniaca (Apricot) Kernel Oil) • 3) Glycerin (INCI: Glycerin) • 4) Isohexadecane (INCI: Isohexadecane) • 5) 2-octyldodecan-1-ol ODD (INCI: Octyldodecanol) • 6) SLP Emulsifier (INCI: Sorbitan Laurate/Polyglyceryl-4 Laurate/Dilauryl Citrate)
Subsequently, the sample was mixed using a shaker for approx. 1 min and maintained for 10 min in an ultrasonic bath to achieve a higher dispersion level.
0.5 mg of scytonemin was weighed out on an analytical balance and suspended in 5 g of the composition: • 7) glycerin+glycerol stearate+water+silica+alcohol
The sample was stirred for 5 min using a laboratory stirrer

[5] = Thermogravimetric/differential thermal analysis (TG/DTA), thermal decomposition; type: physicochemical; settings: argon, heating 15 ° C./minute, 3.7 mg
Experimental: 3.7 mg of the sample was weighed out into an alumina crucible and 34.6 mg of pure gold wire (99.999%) was added to balance the rod weight with the microbalance counterweight.
• Argon flow at 2 atm • Sample weight: 3.7 mg • Crucible: 100 μL Al2O3 • Reference crucible: Al2O3 • Temperature ramp:
Weight losses in successive stages were calculated based on the thermogravimetric curve, and the presence of exothermic and endothermic processes during sample heating were determined from the heat flow curve.

Substance: scytonemin
- Specific extinction/1% at 305 nm ([1]; 305 nm): 330
- Specific extinction/1% to 393 nm ([1]; 393 nm): 730
- characteristic absorbance spectra after continuous UVA irradiation ([2]; 2 months, UVA 5 W/m2): practically unchanged
- characteristic absorbance spectra after heating ([2]; heating to 60° C. for 2 months): practically unchanged
- absorbance spectra before and after the storage test [3]: identical
- dispersion level ([4]; 0.5 mg in 1 g 2-octyldodecan-1-ol ODD (solution 5)): Relatively high dispersion level
- dispersion level ([4]; 0.5 mg in 1 g SLP Emulsifier (solution 6)): Low dispersion level
- dispersion level ([4]; 0.5 mg in 1 g glycerin (solution 3)): Low dispersion level
- dispersion level ([4]; 0.5 mg in 1 g isohexadecane (solution 4)): High dispersion level
- dispersion level ([4]; 0.5 mg in 1 g propylene glycol (solution 1)): High dispersion level
- dispersion level ([4]; 0.5 mg in 1 g refined apricot oil (solution 2)): Very low dispersion level
- dispersion / dissolution in raw material base ([4]; 0.5 mg in 5 g glycerin+glycerol stearate+water+silica+alcohol (composition 7), stirred 5 min): did not dissolve but disintegrated into smaller particles
- Maximum of weight loss (decomposition maximum) [5]: 380.3 °C
- T range of decomposition [5]: 365.4-380.3 °C

From patent publication US20240263133A1, “PROCESS FOR THE ISOLATION AND CULTURE OF STRAINS, THE STRAINS, USE THEREOF, MEDIA FOR CULTURING THEREOF AND A FORM OF SCYTONEMIN” (UVERA SA, priority 2021, published 2024)
